Data taken from US5214034A, “Catechol derivatives, and preventive and remedial preparations for regressive disorders in the central nervous system containing the same” (priority 1986, dated 1993).
Read-outs that look alike come from different tables or passages of the source.

Tests used:
[1] = test system: NGF; experiment: NGF production in the central nervous system of normal rats by intraperitoneal injection (NGF content of brain tissue, ELISA); format: in vivo, rat (Wistar male); settings: Table 7, i.p., three times every other day; for NGF content after 48 hr.: 48 hours after final administration; for NGF content after 7 days: 7 days after final administration
Experimental: The derivative (A), e.g. R=Two H, R1 =H and R2 =n-propyl (hereinafter referred to as 4-n-propylcatechol), was administered to normal rats by intraperitoneal injection, and the effect was examined.
4-n-Propylcatechol was administered by intraperitoneal injection 4 times every other day in a dosage of 5 mg/kg. The rats were killed two days after the final administration. The NGF content of each parts in brain was measured. The content was compared with those of control group which was administered saline alone.
A variety of the derivative was administered three times every other day. The content of NGF in the forebrain after 48 hours and 7 days from the final administration was measured and illustrated in Table 7.
Wistar male rats (9-10-week old, 200-250 g of weight) were intraperitoneally injected with the test derivative in a volume of 0.5 ml as a saline solution, emulsion or suspension. Dose and administration times were the same as above. The rats were killed by a hard spinal blow two days after the final administration. Each parts of brain were dissected and subjected to the following treatment under ice cooling.
Each parts of brain were weighed and homogenized for 30 strokes by a Dounce type homogenizer in a homogenization buffer (0.1 M Tris-HCl, containing 2% bovine serum albumin fraction V, 2% gelatin, 1.0 M NaCl, 0.02% NaN3, 2 mM EDTA and 2.6 kiu/ml of aprotinin, pH 7.6) at a concentration of 10% (W/V) (only septum 5% (W/V)). Each homogenate was centrifuged at 100,000 xg for 10 minutes, and 50 μl of supernatant was added with the same amount of a dilution buffer (0.1 M Tris-HCl containing 2% bovine serum albumin fraction V, 0.05% NaN3 and 20 mM CaCl2, pH 7.6). Determination was conducted in accordance with a method of S. Furukawa et al. by using a high sensitivity ELISA system on 8-NGF which was described in J. Neurochem., 40, 734-744 (1983). Lower limit of determination is 0.25 pg/ml. Data are indicated as a mean value ±SE on the NGF content of tissue (pg/mg wet tissue) of five rats.

[2] = Acute toxicity (LD50); settings: mouse, in vivo
Experimental: The catechol derivative having normal type saturated lower alkyl groups on the ring was administered by intravenous injection (i.v.), intraperitoneal injection (i.p.) or oral route (p.o.) to male ddy mice of 4-week old. The LD50 values (mg/kg) were measured by an ordinary method.

[3] = test system: production and secretion of NGF on L-M cells; experiment: Promoting action for the production and secretion of NGF on L-M cells of mouse (ELISA); format: cell-based; settings: Mus musculus
Source text: Catecholamines have also been found in a relatively high concentration to accelerate these functions without being mediated by adrenergic receptors [Y. Furukawa et al., J. Biol. Chem., 261, 6039-6047 (1986)].
The compound having a high activity in Table 1, that is, the catechol derivative having a n-alkyl group in the 3 or 4 position on the ring has been observed an acute cell toxicity in higher concentrations. The toxicity was considered the result of two hydroxyl groups in the catechol structure. Then the hydroxyl groups were esterified or etherified and the resulting derivative was examined the effect on the activity for the production and secretion of NGF.
The experiment was performed according to the procedures of Y. Furukawa et al. which is described in J. Bis Chem., 261, 6039-6047 (1986).
The medium was cultured for 3 days at a temperature of 37° C. After completing the confluency (about 10^6 cells/well), the medium was changed to Medium 199 (0.5 ml/well) containing 0.5% bovine serum albumin (Fraction V, a product of Armour Co.). The sample of the derivative is contained in the medium at a prescribed concentration as illustrated in the Tables.

[4] = test system: production and secretion of NGF in brain astroglial cells; experiment: Promoting activity for the production and secretion of NGF in brain astroglial cells of mouse (ELISA)
Experimental: The experiment was performed by inducing the astroglial cells from mouse forebrain to culture system according to the procedures of S. Furukawa et al. which is described in Biochem. Biophys. Res. Commun., 136, 57-63 (1986).
That is, forebrains of 8-day old mice were dissected out and cut into small pieces. […] Cells and cell clamps were recovered by centrifugation at 200 xg for 5 minutes. They were cultured in Dulbecco modified Eagle's medium (a product of Gibco Co. hereinafter abbreviated as DMEM) containing 10% of fetal calf serum, […] of penicillin, and 50 μg/ml of streptomycin, for 10 to 14 days with medium changes every 3 days. After completing confluency, the cells were dissociated by trypsin treatment and recultured in new culture flasks. This procedure was repeated further twice and more. […] The cells will hereinafter be referred to as astroglial cells.
Astroglial cells were innoculated in 24-well plates having a well surface area of 2.1 cm^2 (a product of Falcon Co.) at a cell density of about 3×10^4 cells/well and cultured for 3 days in DMEM . medium supplemented with 10% of fetal calf serum. After completing confluency about 10^7 cells/well), the medium was changed to DMEM medium (0.5 ml/well) supplemented with 0.5% of bovine serum albumin ((fraction V) and cultured for 3 days. The culture was further continued with medium changes every 3 days. After cells were practically synchronized in the quiscent stage, the medium was changed to 0.5 ml of the medium supplemented with 0.5% of bovine serum albumin and containing a prescribed concentration of test sample as illustrated in Tables. […] Data are expressed as fold increase in NGF content over that in the absence of the test sample. […] Data are presented as means ±SE of four determinations.

[5] = ip, intraperitoneal injection, read-out: LD50 i.p.
[6] = intravenous injection, read-out: LD50 i.v.
[7] = oral route, read-out: LD50 p.o.
[8] = 24 h, read-out: Ratio of NGF increase
[9] = 24 h, read-out: Ratio of NGF increase, 24-hr culture
[10] = 48 h, read-out: Ratio of NGF increase, 48-hr culture
[11] = 24 h, read-out: Ratio of NGF increase, Table 3, 0.10 mM, 24 hours, mean ± SE of four determinations
[12] = 24 h, read-out: Ratio of NGF increase, Table 3, 0.25 mM, 24 hours, mean ± SE of four determinations

SMILES | NGF content after 48 hr. [1] | NGF content after 7 days [1] | LD50 [2, 5] | LD50 [2, 6] | LD50 [2, 7] | fold induction at 30 µM [3, 8] | fold induction at 100 µM [3, 8] | fold induction at 30 µM [3, 9] | fold induction at 150 µM [3, 9] | fold induction at 30 µM [3, 10] | fold induction at 150 µM [3, 10] | fold induction at 100 µM ([4]; 24 h, read-out: Ratio of NGF increase, 24-hr culture, Table 4, 0.10 mM, 24-hr culture) | fold induction at 250 µM ([4]; 24 h, read-out: Ratio of NGF increase, 24-hr culture, Table 4, 0.25 mM, 24-hr culture) | fold induction at 100 µM [4, 11] | fold induction at 250 µM [4, 12] | fold induction at 100 µM ([4]; 48 h, read-out: Ratio of NGF increase, 48-hr culture, Table 4, 0.10 mM, 48-hr culture) | fold induction at 250 µM ([4]; 48 h, read-out: Ratio of NGF increase, 48-hr culture, Table 4, 0.25 mM, 48-hr culture) | LD50 ([2]; ip, read-out: LD50 i.p.) | LD50 ([2]; iv, read-out: LD50 i.v.) | LD50 ([2]; po, read-out: LD50 p.o.)
CCCc1ccc2oc(=O)c(=O)oc2c1 [R = --CO.CO--, R1 = H, R2 = n-Propyl, 6-n-propyl-1,4-benzodioxine-2,3-dione] | 1.54 ± 0.20 pg/mg wet tissue of frontal co | 2.02 ± 0.47 pg/mg wet tissue of frontal co | > 1250 mg/kg | > 250 mg/kg | > 3000 mg/kg | – | – | – | – | – | – | – | – | – | – | – | – | – | – | –
Cc1ccc(O)c(O)c1 [R = Two H, R1 = H, R2 = Methyl, 4-Methylcatechol] | 2.26 ± 0.24 pg/mg wet tissue of frontal co | 1.64 ± 0.46 pg/mg wet tissue of frontal co | > 200 mg/kg | > 50 mg/kg | > 500 mg/kg | 8.91 ± 0.43 | 2.36 ± 1.9 | 8.77 ± 0.66 | 2.87 ± 0.54 | 9.21 ± 0.69 | 2.49 ± 0.88 | 77.3 ± 9.21 | 6.59 ± 1.34 | 80.8 ± 4.21 | 4.89 ± 1.37 | 106 ± 7.61 | 2.47 ± 1.22 | – | – | –
CCCc1ccc(OC(C)=O)c(OC(C)=O)c1 [R = Two acetyl, R1 = H, R2 = n-Propyl, 1,2-diacetoxy-4-propylbenzene] | 1.71 ± 0.28 pg/mg wet tissue of frontal co | 2.16 ± 0.46 pg/mg wet tissue of frontal co | > 750 mg/kg | > 250 mg/kg | > 2500 mg/kg | – | – | – | – | – | – | – | – | – | – | – | – | – | – | –
CCCc1ccc2c(c1)OC(C)(C)O2 [R = --C(CH3)2 --, R1 = H, R2 = n-Propyl, 5-n-Propyl-2,2-dimethyl-1,3-benzodioxol] | 1.15 ± 0.18 pg/mg wet tissue of frontal co | 1.51 ± 0.49 pg/mg wet tissue of frontal co | > 1500 mg/kg | > 500 mg/kg | > 3500 mg/kg | – | – | – | – | – | – | – | – | – | – | – | – | – | – | –
CCCc1cccc(O)c1O [R = Two H, R1 = n-Propyl, R2 = H] | 2.03 ± 0.37 pg/mg wet tissue of frontal co | 2.00 ± 0.43 pg/mg wet tissue of frontal co | – | – | – | 9.81 ± 0.92 | 16.3 ± 2.04 | – | – | – | – | – | – | 72.9 ± 7.09 | 97 ± 9.24 | – | – | > 500 mg/kg | > 150 mg/kg | > 1500 mg/kg
CCc1ccc(O)c(O)c1 [R = Two H, R1 = H, R2 = Ethyl, 4-ethylcatechol] | 1.96 ± 0.42 pg/mg wet tissue of frontal co | 1.73 ± 0.39 pg/mg wet tissue of frontal co | > 300 mg/kg | > 75 mg/kg | > 1000 mg/kg | 10 ± 0.97 | 12.1 ± 1.09 | – | – | – | – | – | – | 55.2 ± 3.24 | 64.7 ± 4.26 | – | – | – | – | –
CCCCc1ccc(O)c(O)c1 [R = Two H, R1 = H, R2 = n-Butyl, 4-n-butylcatechol] | 1.88 ± 0.46 pg/mg wet tissue of frontal co | 2.25 ± 0.33 pg/mg wet tissue of frontal co | > 500 mg/kg | > 150 mg/kg | > 1500 mg/kg | 8.21 ± 1.1 | 14 ± 1.33 | – | – | – | – | – | – | 59.7 ± 3 | 88.3 ± 2.47 | – | – | – | – | –
